Columns and labels:
[1] = molecular target: Beta-lactamase (Pseudomonas aeruginosa, UniProt Q8RL90); assay: (§1) Spectrophotometric Assay: Enzyme activities were measured in the presence of the test inhibitor in spectrophotometric assay.
[2] = molecular target: Beta-lactamase (Klebsiella pneumoniae, UniProt Q93LQ9); assay: as §1
Sequence of Beta-lactamase (Klebsiella pneumoniae, UniProt Q93LQ9) (Q93LQ9 whole entry): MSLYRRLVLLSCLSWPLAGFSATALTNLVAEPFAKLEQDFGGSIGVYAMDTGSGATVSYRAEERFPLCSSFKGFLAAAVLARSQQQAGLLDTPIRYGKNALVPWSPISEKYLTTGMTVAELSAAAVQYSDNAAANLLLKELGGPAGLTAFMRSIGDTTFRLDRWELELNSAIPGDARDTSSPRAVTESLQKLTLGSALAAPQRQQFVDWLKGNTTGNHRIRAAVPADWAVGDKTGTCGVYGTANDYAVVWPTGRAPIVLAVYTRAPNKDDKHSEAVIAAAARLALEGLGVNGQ

Sequence of Beta-lactamase (Pseudomonas aeruginosa, UniProt Q8RL90) (Q8RL90 whole entry): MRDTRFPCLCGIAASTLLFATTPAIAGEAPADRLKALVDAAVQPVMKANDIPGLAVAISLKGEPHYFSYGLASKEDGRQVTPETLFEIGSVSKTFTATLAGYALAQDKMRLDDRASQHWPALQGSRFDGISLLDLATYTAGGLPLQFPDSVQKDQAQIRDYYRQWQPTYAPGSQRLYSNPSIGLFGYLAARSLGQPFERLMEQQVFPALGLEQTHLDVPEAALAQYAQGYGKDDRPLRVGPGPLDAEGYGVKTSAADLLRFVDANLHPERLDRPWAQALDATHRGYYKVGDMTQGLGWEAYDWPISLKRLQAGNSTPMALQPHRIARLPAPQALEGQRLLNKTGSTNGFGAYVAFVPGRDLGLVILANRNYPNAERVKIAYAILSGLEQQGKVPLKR

Row | Structure (SMILES) | IC50 [1] | IC50 [2]
1 | O=C(Nc1ccncc1)[C@@H]1CCC2CN1C(=O)N2OS(=O)(=O)O (stereo partly drawn) | 6 nM | 
2 | O=C(Nc1ccc2c(c1)CCNC2)[C@@H]1CCC2CN1C(=O)N2OS(=O)(=O)O (stereo partly drawn) |  | 19 nM
3 | O=C(NC1CCCNCC1)[C@@H]1CCC2CN1C(=O)N2OS(=O)(=O)O (stereo partly drawn) | 69 nM | 

Source: ChEMBL document CHEMBL3639375, “Œ=-lactamase inhibitors” (2013)
